In patent US11378572B2, “Therapeutic agent for immune cell migration-caused disease and method for screening same” (ZYMEDI CO., LTD., priority 2017, dated 2022):
“Also recorded” adds a separate entry of the source.

Assays:
KRS = biological target: T1, KRS (Mus musculus, UniProt Q99MN1); assay: KRS level in plasma membrane/cytosol fractions by western blot (KRS translocation to the plasma membrane); format: cell-based; conditions: RAW 264.7 cells, laminin 421 1 μg/ml, 100 nM compound, 12 hours
T1 construct: KRS, which is expressed in monocytes/macrophages and usually present in the cytoplasmic domain, translocates to the plasma membrane by LN421 treatment; endogenous in cells; host or cells: RAW 264.7
Method: After dispensing RAW 264.7 cells (2×10^6 cells) in 100 mm dish and incubating for 18 hours, cells were treated with LN421 l g/ml in serum free DMEM media and harvested at 0 hour, 12 hour, 24 hour. Proteins of RAW 264.7 cells were separated into the cytosol and membrane fractions using ProteoExtract Subcellular Proteome Extraction Kit (Calbiotech, cat #539790). Obtained proteins were electrophoresed and transferred to PVDF membrane (Milipore) and blocked with 3% skim milk. KRS was then detected by western blot. Specifically, KRS polyclonal antibody (rabbit, Neomics, Co. Ltd. #NMS-01-0005) was added and reacted for 1 hour. Unbound antibody was removed and the membrane was added and reacted with anti-rabbit secondary antibody (ThermoFisher Scientific, #31460). After reacting with the secondary antibody, films were exposed in the dark room using ECL reagent as a substrate. […]
First, in order to determine whether various KRS inhibitor candidates could exert inhibitory effect on the KRS translocation to the plasma membrane, RAW 264.7 cells (2×10^6 cells) were dispensed in 100 mm dishes and incubated for 18 hours, followed by treatment with laminin 421 1 μg/ml in serum free DMEM, and 100 nM of each of various KRS inhibitor candidates, and cells were further incubated for 12 hours. […] Afterwards, KRS was detected by western blot, and the specific method were as described in Example 3. […]

[1] = system: CCl4 liver fibrosis animal; assay: CCl4 (carbon tetrachloride)-induced liver fibrosis animal model; format: in vivo, Actin-DsRed mice
Method: Hepatocytes appear red in Actin-DsRed mice (Stock no. #006051, Jackson Laboratory (Bar Harbor, USA)). In order to induce liver fibrosis in this mouse, CCl4 (carbon tetrachloride) was dissolved in corn oil and injected intraperitoneally twice a week at a concentration of 20% for a total of 6 weeks. Three weeks after start of CCl4 administration, vehicle and BC-KI-00053 (100 mg/kg) were administered orally, daily for three weeks. For vehicle, corn oil:polyethylene glycol 400:Tween 80:methyl cellulose (1%)=20:30:1:49 was used.
The degree of fibrosis on the surface and inside (area with a depth of 30-50 μm) of liver was detected by the Second Harmonic Generation (SHG) technique of intravial imaging (Excitation: 780 nm, Detection: 390 nm).

[2] = system: Dahl salt-sensitive (SS) rats; assay: Dahl salt-sensitive (SS) rat on high salt diet; format: in vivo
Method: Experiments were performed using male Dahl SS rats at 9-12 weeks of age. These animals were provided by the University of Mississippi Medical Center and approved by the American Association for Accreditation of Laboratory Animal Care (AAALAC). All protocols were approved by the Institutional Animal Care and Use Committee of the University of Mississippi Medical Center. Rats were fed ad libitum, and these rats were provided with a purified AIN-76 rodent feed containing 0.4% NaCl (Dyets, Bethlehem, Pa.) after weaning. Dahl salt-sensitive (SS) rat is an animal model that rapidly develops high hypertension, proteinuria, glomerulosclerosis and renal interstitial fibrosis on high salt (HS) diet.
Dahl SS rats were anesthetized with isoflurane and telemetry transmitters (model TA11PAC40, Data Sciences International, St. Paul, Minn.) were aseptically implanted in the same manner as described above. After surgery, rats were housed in individual cages in a quiet air-conditioned room environment with a 12:12 hour light-dark cycle and it took a week to fully recover from surgery. Then, the baseline mean arterial blood pressure (MAP) was measured before the rats were placed in the metabolic cage to measure urine protein excretion. Proteinuria was measured using the Bradford method and BSA (Bio-Rad Laboratories, Hercules, Calif.) as a standard.
Rats were then randomly divided into two experimental groups: Group 1 (n=15) was treated with BC-KI-00053 (25 mg/kg daily) by gastrointestinal gavage; Group 2 (n=15) was administered by gastrointestinal gavage with the same volume (2.5 ml/kg per day) of vehicle (corn oil, polyethylene glycol 400, Tween 80 and methyl cellulose). Simultaneously with the administration of agents, feed was changed to HS feed containing 8% NaCl (Dyets, Bethlehem, Pa.) and blood pressure and proteinuria were measured at 7, 14 and 21 days after starting HS feed. At the end of the experiment, rats were anesthetized with isoflurane and blood samples were taken to measure creatinine levels. Rats were then flushed with 50 ml of 0.9% NaCl through the aorta and perfused with 20 ml of 4% paraformaldehyde. Kidneys and hearts were collected for histological evaluation.
Paraffin section preparation and evaluations of the degree of glomerular damage, cortex and medulla fibrosis were performed as described above. In addition, immunohistochemical staining (IHC) for CD68, a monocyte/macrophage marker for kidney tissue, was performed in the same manner as in Example 8.
Statistics: Each data is expressed as mean±SEM. Comparison between groups was analyzed by two-tailed test. P value p<0.05 was considered statistically significant.

[3] = CCl4 6 weeks, BC-KI-00053 100 mg/kg oral daily for 3 weeks
[4] = normal animal (corn oil) + BC-KI-00053 100 mg/kg oral daily 3 weeks

T1 sequence (Q99MN1 whole entry, the tested form may be a part): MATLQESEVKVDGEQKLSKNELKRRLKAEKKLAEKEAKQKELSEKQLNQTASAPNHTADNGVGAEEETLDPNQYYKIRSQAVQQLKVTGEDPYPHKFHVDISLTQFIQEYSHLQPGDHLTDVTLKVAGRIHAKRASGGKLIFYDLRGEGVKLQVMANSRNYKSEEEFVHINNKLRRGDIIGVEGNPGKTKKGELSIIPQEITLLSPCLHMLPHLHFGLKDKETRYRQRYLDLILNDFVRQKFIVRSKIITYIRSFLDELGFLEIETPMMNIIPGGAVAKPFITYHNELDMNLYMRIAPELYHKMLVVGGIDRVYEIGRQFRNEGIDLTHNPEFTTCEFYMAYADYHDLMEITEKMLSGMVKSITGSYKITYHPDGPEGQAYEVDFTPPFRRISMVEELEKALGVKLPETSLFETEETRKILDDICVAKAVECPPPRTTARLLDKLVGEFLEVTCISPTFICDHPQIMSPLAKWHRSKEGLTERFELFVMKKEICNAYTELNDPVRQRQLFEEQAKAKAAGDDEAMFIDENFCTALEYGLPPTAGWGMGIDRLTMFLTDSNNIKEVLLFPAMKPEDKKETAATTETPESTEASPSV

## COc1ccc(CCN(Cc2ccc(C(=O)O)cc2)c2nc3cccc(F)c3s2)cc1 [BC-KI-00053, 4-({(7-fluorobenzo[d]thiazol-2-yl)[2-(4-methoxyphenyl)ethyl]amino}methyl)benzoic acid]
KRS
  level of KRS in the plasma membrane region: reversed; also recorded: significantly lowered
[1]; [3]
  fibrosis in the surface and inside the liver (SHG imaging): greatly reduced
  hepatocyte necrosis: noticeably reduced
[1]; [4]
  other symptoms in the liver: no other symptoms
  weight loss: no weight loss
[1]; normal animal + BC-KI-00053 100 mg/kg
  in vivo tolerability: innocuous
[2]; 25 mg/kg daily 3 weeks
  cortical fibrosis: 6.47±0.46%
  renal medulla fibrosis: 12.33±0.78%
  renal tissue infiltration of monocytes/macrophages (CD68 IHC): significantly reduced
[2]; 25 mg/kg daily 3 weeks, Sirius red
  cardiac fibrosis: 6.63±0.94%
[2]; 25 mg/kg daily 3 weeks, score 0 to 4+
  mean glomerular injury score: 1.34±0.04
[2]; 25 mg/kg daily gavage, 3 weeks
  body weight during the study period: maintained or increased slightly
[2]; 25 mg/kg daily, after 2 weeks of treatment, HS diet
  MAP: 164.43±3.00 mmHg
[2]; 25 mg/kg daily, after one week of treatment, HS diet
  proteinuria: 302.86 ± 29.76 mg/day
[2]; 25 mg/kg daily, after two weeks of treatment, HS diet
  proteinuria: 510.64 ± 42.42 mg/day
[2]; 25 mg/kg daily, end of experiment
  plasma creatinine concentration: 0.55 ± 0.01 mg/dL
[2]; 25 mg/kg daily, end of study, HS diet
  proteinuria: 524.55 ± 44.70 mg/day
[2]; 25 mg/kg daily, study completed (21 days), HS diet
  MAP: 178.48±3.49 mmHg
[2]; baseline, before treatment
  MAP: 123.45±2.36 mmHg
  proteinuria: 113.27 ± 8.06 mg/day
[2]; baseline, before treatment, mean±SEM
  baseline body weight: 350.13 ± 9.173 g
